Data on 30 molecules can be found in ChEMBL document CHEMBL5154672, “Design and synthesis of HDAC inhibitors to enhance the therapeutic effect of diffuse large B-cell lymphoma by improving metabolic stability and pharmacokinetic characteristics” (Eur J Med Chem, 2022).

One data set deals with MDA-MB-231. Nature of the data set: Antiproliferative activity against human MDA-MB-231 cells assessed as remaining cell activity at 2 uM incubated for 72 hrs by luminescence assay relative to control. Format: functional.
The test system of the next data set is TMD8. Kind of data set: Antiproliferative activity against human TMD8 cells assessed as remaining cell activity at 2 uM incubated for 72 hrs by luminescence assay relative to control. Format: functional.
In a further data set the target is Histone deacetylase 1 (Homo sapiens, UniProt Q13547). Kind of data set: Inhibition of HDAC1 (unknown origin) using RHKK(Ac)AMC fluorogenic peptide as substrate preincubated for 10 mins followed by substrate addition for 1 hr in presence of ATP by fluoroscence based assay.
Another data set concerns HCT-116. Kind of data set: Antiproliferative activity against human HCT-116 cells assessed as remaining cell activity at 2 uM incubated for 72 hrs by luminescence assay relative to control. Format: functional.
The next data set relates to A549. Nature of the data set: Antiproliferative activity against human A549 cells assessed as remaining cell activity at 2 uM incubated for 72 hrs by luminescence assay relative to control. Format: functional.
Data set [1] can be described thus: Metabolic stability in human liver microsomes assessed as intrinsic clearance measured for 75 to 130 mins by LC-MS/MS analysis. The settings on record: time 75-130 min; for microsomal CLint: liver microsomes, read-out: CLH. Format: ADME, Microsome.
Data set [2] can be described thus: Metabolic stability in human liver microsomes assessed as half life measured for 75 to 130 mins by LC-MS/MS analysis. Format: ADME, Microsome. The note with it: time 75-130 min; for half-life: liver microsomes.

Sequence of Histone deacetylase 1 (Q13547 whole entry): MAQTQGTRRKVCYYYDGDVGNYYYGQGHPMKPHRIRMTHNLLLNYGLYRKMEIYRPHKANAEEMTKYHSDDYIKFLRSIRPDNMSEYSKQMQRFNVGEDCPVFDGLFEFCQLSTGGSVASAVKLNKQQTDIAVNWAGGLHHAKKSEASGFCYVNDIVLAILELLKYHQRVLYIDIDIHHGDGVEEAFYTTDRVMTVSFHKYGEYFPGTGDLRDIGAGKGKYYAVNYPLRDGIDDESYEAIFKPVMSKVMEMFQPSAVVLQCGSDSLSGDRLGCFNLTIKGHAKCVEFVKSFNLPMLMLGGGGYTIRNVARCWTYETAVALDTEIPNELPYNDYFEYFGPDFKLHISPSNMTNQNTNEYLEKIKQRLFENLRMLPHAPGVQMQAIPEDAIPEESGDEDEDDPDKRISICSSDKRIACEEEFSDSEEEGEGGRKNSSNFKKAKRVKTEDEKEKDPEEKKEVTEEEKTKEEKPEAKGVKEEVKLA

As to `Nc1ccccc1NC(=O)c1ccc(CN2CC/C(=C\c3ccccn3)C2=O)cc1`, the Activity is on record as 60.99% in the data set on MDA-MB-231, 15.5% in the data set with TMD8, 56.41% in the data set on HCT-116 and 74.98% in the data set with A549. The IC50 at Histone deacetylase 1 worked out at 82 nM.

On to `Nc1ccccc1NC(=O)c1ccc(CN2CCC/C(=C\c3ccc(Cl)cc3)C2=O)cc1`, for which the microsomal CLint in data set [1] was 9.57 µL/min/mg. In addition, at Histone deacetylase 1, the concentration for half-maximal inhibition (IC50) turned out to be 487 nM. For the same molecule, in data set [2], the half-life was 2.42 h.

Turning to `Nc1cc(F)ccc1NC(=O)c1ccc(CN2CCC/C(=C\c3ccncc3)C2=O)cc1`, at Histone deacetylase 1, the IC50 was 2510 nM.

For the molecule `Nc1ccccc1NC(=O)c1ccc(CN2CCC/C(=C\c3ccccc3)C2=O)cc1`, the microsomal CLint in data set [1] came out at 11 µL/min/mg. In addition, the IC50 on Histone deacetylase 1 is 195 nM. Besides, the half-life in data set [2] came out at 2.1 h.

Take `Nc1cc(F)ccc1NC(=O)c1ccc(CN2CC/C(=C\c3ccccn3)C2=O)cc1`: in data set [1] (microsomes), the “Intrinsic clearance in human liver microsomes” value came to 10.2 µL/min/mg. Moreover, the Activity in the data set with MDA-MB-231 is given as 83.37%; in the data set on TMD8, 29.75%; with HCT-116, 121.48%; in the data set on A549, 93.24%. Besides, the IC50 on Histone deacetylase 1 is 866 nM. Further, in data set [2] (microsomes), the t1/2 amounted to 15.6 h.

`Nc1cc(F)ccc1NC(=O)c1ccc(CN2CCC/C(=C\c3cccnc3)C2=O)cc1`: the 50% inhibitory concentration (IC50) on Histone deacetylase 1 amounted to 2340 nM.

As to `Nc1cc(F)ccc1NC(=O)c1ccc(CN2CCC/C(=C\c3cccc(Cl)c3)C2=O)cc1`, the IC50 on Histone deacetylase 1 stood at 1940 nM.

On to `Nc1cc(F)ccc1NC(=O)c1ccc(CN2CCC/C(=C\c3ccccn3)C2=O)cc1`, for which the IC50 at Histone deacetylase 1 is 1350 nM.

As to `Nc1ccccc1NC(=O)c1ccc(CN2CCC/C(=C\c3ccccc3Cl)C2=O)cc1`, the microsomal CLint in data set [1] was 9.3 µL/min/mg. In addition, at Histone deacetylase 1, the half-maximal inhibitory concentration (IC50) amounted to 396 nM. In addition, the half-life in data set [2] amounted to 2.48 h.

Regarding `Cc1cccc(/C=C2\CCCN(Cc3ccc(C(=O)Nc4ccc(F)cc4N)cc3)C2=O)c1`, the IC50 on Histone deacetylase 1 is 928 nM.

As for `Nc1cc(F)ccc1NC(=O)c1ccc(CN2CCC/C(=C\c3ccco3)C2=O)cc1`, the half-inhibitory concentration (IC50) on Histone deacetylase 1 was found to be 1200 nM.

Turning to `Nc1cc(F)ccc1NC(=O)c1ccc(CN2CCC/C(=C\c3ccccc3Cl)C2=O)cc1`, the concentration for half-maximal inhibition (IC50) on Histone deacetylase 1 was 1090 nM.

Regarding `Nc1ccccc1NC(=O)c1ccc(CN2CCC/C(=C\c3ccc4ccccc4c3)C2=O)cc1`, the concentration for half-maximal inhibition (IC50) on Histone deacetylase 1 was determined as 692 nM.

Consider `Cc1ccc(NC(=O)c2ccc(CN3CCC/C(=C\c4ccc(Cl)cc4)C3=O)cc2)c(N)c1`, for which the 50% inhibitory concentration (IC50) on Histone deacetylase 1 is above 10000 nM.

As for `COc1ccc(/C=C2\CCCN(Cc3ccc(C(=O)Nc4ccc(F)cc4N)cc3)C2=O)cc1`, the IC50 on Histone deacetylase 1 came to 906 nM.

Turning to `Nc1cc(F)ccc1NC(=O)c1ccc(CN2CCC/C(=C\c3ccc(Br)cc3)C2=O)cc1`, at Histone deacetylase 1, the half-inhibitory concentration (IC50) amounted to 1960 nM.

Consider `Cc1ccccc1/C=C1\CCCN(Cc2ccc(C(=O)Nc3ccc(F)cc3N)cc2)C1=O`, for which the 50% inhibitory concentration (IC50) on Histone deacetylase 1 worked out at 2450 nM.

Take `Nc1ccccc1NC(=O)c1ccc(CN2CCC/C(=C\c3ccc(Cl)c(C(F)(F)F)c3)C2=O)cc1`: the IC50 at Histone deacetylase 1 amounted to 1490 nM.

`Nc1cc(F)ccc1NC(=O)c1ccc(CN2CCC/C(=C\c3ccc(Cl)cc3)C2=O)cc1`: on Histone deacetylase 1, the IC50 came to 617 nM.

In the case of `Nc1cc(Br)ccc1NC(=O)c1ccc(CN2CCC/C(=C\c3ccc(Cl)cc3)C2=O)cc1`, the IC50 on Histone deacetylase 1 was above 10000 nM.

For `Nc1cc(F)ccc1NC(=O)c1ccc(CN2CCC/C(=C\c3ccc4ccccc4c3)C2=O)cc1`, the IC50 on Histone deacetylase 1 stood at 1200 nM.

With `Nc1cc(F)ccc1NC(=O)c1ccc(CN2CC/C(=C\c3ccccc3)C2=O)cc1`, the microsomal CLint in data set [1] amounted to 11.3 µL/min/mg. Moreover, on Histone deacetylase 1, the half-inhibitory concentration (IC50) stood at 424 nM. Further, in data set [2], the half-life was determined as 2.1 h.

For `Nc1ccccc1NC(=O)c1ccc(CN2CCC/C(=C\c3ccco3)C2=O)cc1`, the microsomal CLint in data set [1] turned out to be 4.45 µL/min/mg. In addition, the Activity is on record as 53.88% with MDA-MB-231, 5.48% in the data set with TMD8, 44.43% with HCT-116 and 61.8% with A549. For the same molecule, the 50% inhibitory concentration (IC50) at Histone deacetylase 1 was determined as 303 nM. In addition, the half-life in data set [2] turned out to be 5.18 h.

Regarding `Nc1ccccc1NC(=O)c1ccc(CN2CCC/C(=C\c3ccncc3)C2=O)cc1`, the microsomal CLint in data set [1] stood at 2.96 µL/min/mg. The Activity was 77.05% in the data set with MDA-MB-231, 26.34% in the data set with TMD8, 66.57% with HCT-116 and 98.64% in the data set on A549. For the same molecule, on Histone deacetylase 1, the IC50 came to 270 nM. In data set [2], the half-life stood at 7.78 h.

For the molecule `Nc1cc(F)ccc1NC(=O)c1ccc(CN2CCC/C(=C\c3ccccc3)C2=O)cc1`, the 50% inhibitory concentration (IC50) at Histone deacetylase 1 was 2210 nM.

Turning to `Nc1ccccc1NC(=O)c1ccc(CN2CCC/C(=C\c3cccc(Cl)c3)C2=O)cc1`, on Histone deacetylase 1, the 50% inhibitory concentration (IC50) was determined as 636 nM.

For the molecule `Nc1cc(F)ccc1NC(=O)c1ccc(CN2CCC/C(=C\c3ccc(F)cc3)C2=O)cc1`, the concentration for half-maximal inhibition (IC50) on Histone deacetylase 1 was 2630 nM.

For `Nc1ccccc1NC(=O)c1ccc(CN2CCC/C(=C\c3cccnc3)C2=O)cc1`, the microsomal CLint in data set [1] came to 5.02 µL/min/mg. Moreover, the Activity in the data set on MDA-MB-231 was 58.3%; in the data set on TMD8, 23.83%; in the data set with HCT-116 it was 57.19%; in the data set with A549, 72.41%. Also, the IC50 at Histone deacetylase 1 is 219 nM. The half-life in data set [2] amounted to 4.6 h.

As for `Cc1ccc(/C=C2\CCCN(Cc3ccc(C(=O)Nc4ccc(F)cc4N)cc3)C2=O)cc1`, the concentration for half-maximal inhibition (IC50) at Histone deacetylase 1 stood at 794 nM.

Turning to `Nc1ccccc1NC(=O)c1ccc(CN2CCC/C(=C\c3ccc(Cl)c(F)c3)C2=O)cc1`, the concentration for half-maximal inhibition (IC50) at Histone deacetylase 1 is 572 nM.
